The source of these data is ChEMBL document CHEMBL1152465, “Comparative evaluation of the inhibitory activities of a series of pyrimidinedione congeners that inhibit human immunodeficiency virus types 1 and 2” (Antimicrob Agents Chemother, 2008).

Activity calls are given as the source filed them.

The subject of data set [1] is Human immunodeficiency virus 2. Briefly: Antiviral activity against HIV2 ROD infected in human CEM-SS cells assessed as inhibition of virus-induced cytopathic effect by XTT assay. It is filed as functional, organism-based, ISOLATE ROD. To be noted: Human immunodeficiency virus 2, ISOLATE ROD, CEM-SS; read-out: EC50. (In general: Damage to the host cells serves as the signal in cytopathic effect assays.)

Data set [2] can be described thus: Cytotoxicity against human CEM-SS cells by XTT assay. Format: cell-based. The note with it: read-out: TC50 (the source's name). On the technique in general: Tetrazolium assays rely on reduction of a dye to a coloured formazan, in cell work by metabolically active cells.
The target of data set [3] is Human immunodeficiency virus type 1 reverse transcriptase (Human immunodeficiency virus 1, UniProt Q72547, K103N). In words: Inhibition of HIV1 reverse transcriptase K103N mutant assessed as 32P-labeled GMP incorporation into nascent DNA strand.
Data set [4] deals with Human immunodeficiency virus type 1 reverse transcriptase (Human immunodeficiency virus 1, UniProt Q72547). Briefly: Inhibition of wild type HIV1 reverse transcriptase assessed as 32P-labeled GMP incorporation into nascent DNA strand.
Data set [5] is described as follows: Cytotoxicity against human HeLa cells expressing CD4-LTR by XTT assay. Format: cell-based. The note with it: read-out: TC50 (the source's name).
The test system of data set [6] is Human immunodeficiency virus 2. In words: Inhibition of HIV2 reverse transcriptase.
Data set [7] deals with Human immunodeficiency virus 1. In words: Antiviral activity against HIV1 infected in human HeLa cells expressing CD4-LTR assessed as inhibition of viral entry-related beta galactosidase expression treated for 2 hrs followed by drug wash out measured after 48 hrs by MAGI assay. Format: functional, organism-based. The note with it: Human immunodeficiency virus 1, HeLa.
Data set [8] deals with Simian immunodeficiency virus. In words: Antiviral activity against SIV MAC251 infected in human 174xCEM cells assessed as inhibition of virus-induced cytopathic effect. It is filed as functional, organism-based.
For data set [9], the system named is Human immunodeficiency virus 2. In words: Antiviral activity against HIV2 assessed as inhibition of viral replication treated at time points after viral entry into host cells. It is filed as functional, organism-based.
The subject of data set [10] is Human immunodeficiency virus 2. Briefly: Inhibition of HIV2 reverse transcriptase assessed as 32P-labeled GMP incorporation into nascent DNA strand at highest concentration.
Data set [11] can be described thus: Therapeutic index, ratio of TC50 for human CEM-SS cells to EC50 for HIV2 ROD infected in human CEM-SS cells. It is filed as cell-based. To be noted: CEM-SS cells, read-out: TI.
The nature of data set [12]: Therapeutic index, ratio of TC50 for human CEM-SS cells to EC50 for HIV1 RF infected in human CEM-SS cells. It is filed as cell-based. The note with it: read-out: TI.
The test system of data set [13] is Human immunodeficiency virus 2. In words: Antiviral activity against HIV2 assessed as inhibition of viral single round replication at early time point. Format: functional, organism-based.
Another data set relates to HeLa. In words: Inhibition of HIV1 gp120/CD4 interaction assessed as inhibition of gp120 and gp41 coexpressing human HL2/3 cell fusion to CD4 expressing human HeLa cells treated for 2 hrs measured after 48 hrs by chemiluminescence assay. It is filed as cell-based. To be noted: Human immunodeficiency virus 1.
Data set [14] can be described thus: Therapeutic index, ratio of TC50 human HeLa cells expressing CD4-LTR to EC50 for HIV1 entry inhibition in human HeLa cells expressing CD4-LTR. To be noted: read-out: TI. Format: cell-based.
Data set [15] deals with Human immunodeficiency virus 1. In words: Antiviral activity against HIV1 infected in human CEM-SS cells assessed as inhibition of viral replication and virus-induced cytopathic effect by dose-response curve analysis. The note with it: Human immunodeficiency virus 1, CEM-SS. Format: functional.
In data set [16] the test system is Human immunodeficiency virus 1. In words: Antiviral activity against HIV1 RF infected in human CEM-SS cells assessed as inhibition of virus-induced cytopathic effect by XTT assay. The note with it: Human immunodeficiency virus 1, RF. It is filed as functional, organism-based.
Data set [17] relates to Human immunodeficiency virus 2. In words: Antiviral activity against HIV2 infected in human CEM-SS cells assessed as inhibition of viral replication and virus-induced cytopathic effect by dose-response curve analysis. Format: functional. The note with it: Human immunodeficiency virus 2, CEM-SS.

Regarding `Cc1cc(C)cc(Oc2c(C(C)C)c(=O)[nH]c(=O)n2Cc2ccccc2)c1`, the EC50 in [1] amounted to 0.1 µM; in [7] it was 0.009 µM; in data set [16], 0.014 µM. Further, the CC50 in data set [2] and in [5] was 38.2 µM each time. Also, the IC50 in [3] was determined as 0.975 µM; in data set [4], 0.114 µM. Besides, the result in data set [6], in [8], in data set [9] and in data set [10] was inactive. Further, the selectivity ratio in [11] is 278; in data set [12], 2720; in data set [14], 4180. Also, in data set [13], the result was Active. In addition, the inhibition entry in the data set on HeLa is “inactive”. In [15], the EC99 was found to be 1 µM.
As for `CCc1c(Oc2cc(C)cc(C)c2)n(CC2CCC2)c(=O)[nH]c1=O`, the EC50 came to 7.2 µM in [1], 0.3 µM in data set [7] and 0.022 µM in [16]. Further, the CC50 in data set [2] and in data set [5] was 1200 µM each time. Also, the IC50 in [3] was 0.289 µM; in data set [4], 0.235 µM. In addition, the outcome in [6], in [9] and in [10] was inactive. The results for the EC99 in [17] and in data set [15] were above 100 µM and 1 µM, respectively. The selectivity ratio was above 172 in data set [11], 54200 in [12] and 3960 in data set [14]. Moreover, the result in [13] was Active.
For the compound `CCc1c(C(=O)c2cc(C)cc(C)c2)n(CCC2C=CCC2)c(=O)[nH]c1=O` (stereo not given), the EC50 was 0.2 µM in data set [1], 0.07 µM in data set [7] and 0.054 µM in data set [16]. In addition, the CC50 in data set [2] and in [5] was 92 µM each time. Moreover, the IC50 in [3] turned out to be 1.88 µM; in data set [4], 0.075 µM. Also, the result in data set [6], in data set [8], in data set [9] and in data set [10] was inactive. The selectivity ratio in data set [11] was 421; in data set [12], 1680; in data set [14] it was 1310. The result in data set [13] was Active. The inhibition entry in the data set with HeLa was “inactive”. Also, the EC99 in [15] worked out at 1 µM.
On to `CCc1c(Sc2cc(C)cc(C)c2)n(CC2CCC2)c(=O)[nH]c1=O`, for which the results for the EC50 in data set [1], in data set [7] and in data set [16] were 1.7 µM, 0.11 µM and 0.0123 µM, respectively. Moreover, the CC50 in data set [2] was 27 µM; in data set [5], 509 µM. The IC50 in [3] is above 290 µM; in data set [4], 0.02 µM. The result in data set [6], in data set [9] and in data set [10] was inactive. Also, the EC99 amounted to 40 µM in data set [17] and 1 µM in data set [15]. In addition, the selectivity ratio in data set [11] stood at 16.3; in data set [12], 80800; in data set [14], 4610. The result in data set [13] was Active.
For the compound `Cc1cc(C)cc(Oc2c(C(C)C)c(=O)[nH]c(=O)n2CC2CCC2)c1`, the EC50 in data set [1] was determined as 1.3 µM; in data set [7] it was 0.26 µM; in data set [16], 0.0005 µM. Moreover, the CC50 in [2] came out at 16.1 µM; in data set [5], 16.6 µM. The IC50 in [3] stood at 0.213 µM; in data set [4], 0.12 µM. The result in data set [6], in data set [8], in [9] and in [10] was inactive. Further, the selectivity ratio in data set [11] was determined as 12.2; in data set [12], 32200. For the same compound, the result in data set [13] was Active. In addition, in the data set on HeLa, the inhibition entry was “inactive”. The EC99 in [15] stood at 1 µM.
On to `CCc1c(C(=O)c2cc(C)cc(C)c2)n(CC2CC2)c(=O)[nH]c1=O`, for which the EC50 in data set [1] was found to be 0.5 µM; in [7], 0.006 µM; in [16], 0.0096 µM. In addition, the CC50 in data set [2] came to 1200 µM; in data set [5], 1210 µM. Further, the results for the IC50 in [3] and in [4] were 1.78 µM and 0.178 µM, respectively. Moreover, the outcome in data set [6], in data set [9] and in data set [10] was inactive. Also, the EC99 in data set [17] is 100 µM; in [15], 0.01 µM. Also, the values for the selectivity ratio in data set [11], in data set [12] and in data set [14] were 2650, 125000 and 197000, respectively. Also, the result in data set [13] was Active.
Take `CCc1c(C(=O)c2cc(C)cc(C)c2)n(CC2=CCCC2)c(=O)[nH]c1=O`: the EC50 in data set [1] was 1.4 µM; in data set [7], 0.11 µM; in data set [16], 0.0025 µM. For the same compound, the CC50 in [2] and in data set [5] was 60.5 µM in each case. Moreover, the IC50 in data set [3] was 1.93 µM; in [4], 0.088 µM. Also, the result in [6], in [8], in data set [9] and in data set [10] was inactive. Moreover, the selectivity ratio in data set [11] stood at 42.6; in data set [12] it was 23700; in data set [14], 536. In [13], the result was Active. Besides, the inhibition result in the data set on HeLa is “inactive”. In data set [15], the EC99 came to 1 µM.
Regarding `Cc1cc(C)cc(Sc2c(C(C)C)c(=O)[nH]c(=O)n2CC2=CCCC2)c1`, the EC50 in data set [1] was 0.5 µM; in data set [7], 0.009 µM; in [16], 0.005 µM. Besides, the CC50 in [2] and in data set [5] was 29.4 µM each time. Further, the IC50 was above 270 µM in data set [3] and 0.079 µM in data set [4]. Besides, the result in data set [6], in data set [9] and in [10] was inactive. For the same compound, the EC99 is 1 µM in data set [17] and 0.0003 µM in [15]. In addition, the selectivity ratio in data set [11] worked out at 57.4; in data set [12], 5920; in data set [14], 3270. The result in data set [13] was Active.
Regarding `CCc1c(Sc2cc(C)cc(C)c2)n(Cc2ccccc2)c(=O)[nH]c1=O`, the concentration for a half-maximal effect (EC50) in [1] is 0.4 µM; in data set [7], 0.18 µM; in data set [16], 0.0018 µM. In addition, the CC50 in data set [2] and in [5] was 1100 µM in each case. Besides, the values for the IC50 in [3] and in data set [4] were 4.05 µM and 15.6 µM, respectively. Besides, the result in data set [6], in data set [8], in [9] and in data set [10] was inactive. Besides, the figures for the selectivity ratio in [11], in [12] and in [14] were above 2490, 598000 and 5980, respectively. Also, in [13], the result was Active. In the data set with HeLa, the inhibition result was “inactive”. The EC99 in data set [15] stood at 1 µM.
For the compound `CCc1c(Oc2cc(C)cc(C)c2)n(Cc2ccccc2)c(=O)[nH]c1=O`, the EC50 in [1] came to 0.3 µM; in data set [7], 0.08 µM; in data set [16] it was 0.0049 µM. Moreover, the CC50 in data set [2] and in data set [5] was 802 µM throughout. In addition, the IC50 in [3] turned out to be 0.197 µM; in data set [4], 0.095 µM. Also, the result in data set [6], in data set [9] and in data set [10] was inactive. Further, the EC99 in data set [17] and in data set [15] was 0.3 µM each time. Also, the figures for the selectivity ratio in data set [11], in data set [12] and in data set [14] were 2550, 165000 and 10200, respectively. Also, the outcome in data set [13] was Active.
As for `CCc1c(Oc2cc(C)cc(C)c2)n(CC2CC=CC2)c(=O)[nH]c1=O`, the EC50 amounted to 19 µM in [1], 0.09 µM in data set [7] and 0.0071 µM in data set [16]. Further, the values for the CC50 in data set [2] and in data set [5] were 1200 µM and 630 µM, respectively. For the same compound, the IC50 in [3] is 5.1 µM; in [4], 0.38 µM. For the same compound, the outcome in [6], in data set [9] and in data set [10] was inactive. Further, the results for the EC99 in data set [17] and in data set [15] were above 100 µM and 0.2 µM, respectively. The selectivity ratio is above 3.2 in data set [11], 170000 in data set [12] and 6850 in [14]. Moreover, in data set [13], the outcome was Active.

One may read the EC50 as the concentration that produces a half-maximal response. The IC50 is the midpoint of a concentration-inhibition curve. One may read the EC99 as the concentration at which the effect reaches the 99% level.
